Laboratory results reported in paper PMC2679375 (Journal of medicinal chemistry, 2008).

Columns and labels:
in vivo = settings: rat, po
XIAP BIR3 = XIAP BIR3 (Homo sapiens, UniProt P98170); assay: Competitive fluorescence polarization-based XIAP binding assay; settings: relative to compound 2
cIAP-2 = cIAP-2 (Homo sapiens, UniProt Q13489); assay: FP-based competitive binding assay for cIAP-2; settings: relative to compound 2
Aqueous solubility = type: physicochemical
[1] = test system: MDA-MB-231 cancer cell line; settings: within 24-hour treatment

cIAP-2, sequence (Q13489 whole entry): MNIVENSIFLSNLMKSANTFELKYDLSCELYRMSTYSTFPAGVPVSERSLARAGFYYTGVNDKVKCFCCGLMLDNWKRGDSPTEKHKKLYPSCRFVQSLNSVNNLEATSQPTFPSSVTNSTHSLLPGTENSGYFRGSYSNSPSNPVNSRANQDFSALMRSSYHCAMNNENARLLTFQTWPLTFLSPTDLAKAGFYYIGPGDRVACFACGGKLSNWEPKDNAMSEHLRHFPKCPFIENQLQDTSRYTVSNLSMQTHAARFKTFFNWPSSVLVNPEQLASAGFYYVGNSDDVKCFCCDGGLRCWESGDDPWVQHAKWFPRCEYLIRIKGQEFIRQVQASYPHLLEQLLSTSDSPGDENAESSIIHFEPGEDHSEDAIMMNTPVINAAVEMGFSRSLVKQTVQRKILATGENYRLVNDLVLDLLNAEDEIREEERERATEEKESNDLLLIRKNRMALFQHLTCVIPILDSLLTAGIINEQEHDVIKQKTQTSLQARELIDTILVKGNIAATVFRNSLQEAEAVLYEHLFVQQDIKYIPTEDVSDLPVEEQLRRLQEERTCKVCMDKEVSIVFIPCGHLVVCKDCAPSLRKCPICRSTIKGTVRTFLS
XIAP BIR3, sequence (P98170 241-356 limits assumed): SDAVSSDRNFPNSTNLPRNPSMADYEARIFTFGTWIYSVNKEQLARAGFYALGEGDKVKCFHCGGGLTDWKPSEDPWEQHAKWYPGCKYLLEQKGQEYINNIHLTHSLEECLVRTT

Row | SMILES | times weaker than compound 2 in binding to XIAP BIR3 (XIAP BIR3) | times weaker than 2 in binding to cIAP-2 (cIAP-2) | also measured
1 | CN[C@@H](C)C(=O)N[C@H]1CCCC[C@H]2CC[C@@H](C(=O)NC(c3ccccc3)c3ccccc3)N2C1=O [Compound 1] | – | – | AUC(0-inf) (in vivo; 25 mg/kg): 482 ± 92 ng·h/mL
2 | CN[C@@H](C)C(=O)N[C@H]1CN(C)CC[C@H]2CC[C@@H](C(=O)NC(c3ccccc3)c3ccccc3)N2C1=O [Compound 3, (5S,8S,10aR)-N-benzhydryl-3-methyl-5-((S)-2-(methylamino)propanamido)-6-oxodeca-hydro pyrrolo[1,2-a][1,5]diazocine-8-carbox-amide] | 4-17 times | 2-3 times | –
3 | CN[C@@H](C)C(=O)N[C@H]1CN(Cc2ccccc2)CC[C@H]2CC[C@@H](C(=O)NC(c3ccccc3)c3ccccc3)N2C1=O [Compound 4, (5S,8S,10aR)-N-benzhydryl-3-benzyl-5-((S)-2-(methylamino)propanamido)-6-oxodeca-hydropyrrolo[1,2-a][1,5]diazocine-8-carbox-amide] | 4-17 times | 2-3 times | –
4 | CN[C@@H](C)C(=O)N[C@H]1CN(C(=O)Cc2ccccc2)CC[C@H]2CC[C@@H](C(=O)NC(c3ccccc3)c3ccccc3)N2C1=O [Compound 6, (5S,8S,10aR)-N-Benzhydryl-5-((S)-2-(methyl-amino)propanamido)-6-oxo-3-(2-phenyl-acetyl)decahydro pyrrolo[1,2-a][1,5]diazo-cine-8-carboxamide] | – | – | aqueous solubility (in words) (Aqueous solubility): excellent aqueous solubility; concentration that effectively induces apoptosis [1]: 100 nM; AUC(0-inf) (in vivo; 30 mg/kg): 1980 ± 614 ng·h/mL
